# Measured values from PubChem BioAssay AID330 (DTP/NCI, 2004).
# “And” between values parts separate entries of the source, which are not always exact repeats. Identical values can stand only once. Toxic doses and inconclusive results are not listed.
# System: P388 leukemia ip, CD2F1 mice, survival T/C
# Test: NCI In Vivo Anticancer Drug Screen. Data for tumor model P388 Leukemia (intraperitoneal) in CD2F1 (CDF1) mice
# Details: endpoint: median survival time, higher = longer survival
# Procedure, shortened: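 Mice carrying the transplanted tumor received test compound or vehicle. Survival was recorded in each group, and the value is the treated-group measurement divided by that of the vehicle-treated control group.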
# [1] = dose: 50.0 mg/kg/injection, schedule: Q01DX005 (ip), vehicle: saline with Tween-80
# [2] = dose: 100.0 mg/kg/injection, schedule: Q01DX005 (ip), vehicle: saline with Tween-80
# [3] = dose: 200.0 mg/kg/injection, schedule: Q01DX005 (ip), vehicle: saline with Tween-80
# [4] = dose: 100.0 mg/kg/injection, schedule: Q01DX001 (ip), vehicle: saline with Tween-80
# [5] = dose: 60.0 mg/kg/injection, schedule: Q01DX005 (ip), vehicle: saline with Tween-80
# [6] = dose: 50.0 mg/kg/injection, schedule: Q01DX005 (ip), vehicle: Klucel (hydroxypropylcellulose) (HPC)
# [7] = dose: 100.0 mg/kg/injection, schedule: Q01DX005 (ip), vehicle: Klucel (hydroxypropylcellulose) (HPC)
# [8] = dose: 200.0 mg/kg/injection, schedule: Q01DX005 (ip), vehicle: Klucel (hydroxypropylcellulose) (HPC)
# [9] = dose: 25.0 mg/kg/injection, schedule: Q01DX009 (ip), vehicle: saline
# [10] = dose: 12.5 mg/kg/injection, schedule: Q01DX009 (ip), vehicle: saline with Tween-80
# [11] = dose: 6.25 mg/kg/injection, schedule: Q01DX009 (ip), vehicle: saline
# [12] = dose: 12.5 mg/kg/injection, schedule: Q01DX009 (ip), vehicle: saline
smiles,measurement,setting,value
CC(=O)Oc1c(C)c(OC(C)=O)c2c(c1C(C)=O)OC1=CC(O)=C(C(C)=O)C(=O)C12C (stereo not drawn),T/C,"dose: 6.25 mg/kg/injection, schedule: Q01DX009 (ip), vehicle: gum acacia",98 % of control and 102 % of control
same,T/C,"dose: 12.5 mg/kg/injection, schedule: Q01DX009 (ip), vehicle: gum acacia",104 % of control and 105 % of control
same,T/C,"dose: 25.0 mg/kg/injection, schedule: Q01DX009 (ip), vehicle: gum acacia",100 % of control and 102 % of control
same,T/C,"dose: 50.0 mg/kg/injection, schedule: Q01DX009 (ip), vehicle: gum acacia",102 % of control and 110 % of control
same,T/C,"dose: 100.0 mg/kg/injection, schedule: Q01DX009 (ip), vehicle: gum acacia",113 % of control and 115 % of control
same,T/C,"dose: 100.0 mg/kg/injection, schedule: Q04DX002 (ip), vehicle: saline with Tween-80",97 % of control
same,T/C,"dose: 200.0 mg/kg/injection, schedule: Q04DX002 (ip), vehicle: saline with Tween-80",102 % of control
same,T/C,"dose: 400.0 mg/kg/injection, schedule: Q04DX002 (ip), vehicle: saline with Tween-80",101 % of control
N#C/C(=C1/OC(=N)C(c2ccccc2Cl)C1=O)c1ccccc1Cl (stereo not drawn),T/C,[1],103 % of control
same,T/C,[2],107 % of control
same,T/C,[3],103 % of control
CCN(CC)CCNc1ccc(N)c2sc3ccccc3c(=O)c12,T/C,"dose: 50.0 mg/kg/injection, schedule: Q01DX009 (ip), vehicle: saline with Tween-80",103 % of control and 107 % of control and 119 % of control
same,T/C,"dose: 100.0 mg/kg/injection, schedule: Q01DX009 (ip), vehicle: saline with Tween-80",115 % of control and 120 % of control and 122 % of control
same,T/C,"dose: 200.0 mg/kg/injection, schedule: Q01DX009 (ip), vehicle: saline with Tween-80",96 % of control
O=S(=O)(/N=C1\c2ccccc2/C(=N\S(=O)(=O)c2ccccc2)C2C3C=CC(C3)C12)c1ccccc1 (stereo not drawn),T/C,"dose: 25.0 mg/kg/injection, schedule: Q01DX001 (ip), vehicle: saline with Tween-80",115 % of control
same,T/C,"dose: 50.0 mg/kg/injection, schedule: Q01DX001 (ip), vehicle: saline with Tween-80",100 % of control
same,T/C,[4],90 % of control
C1CC[N-]CC1.C1CC[N-]CC1.[Co].[N-]=C=S.[N-]=C=S,T/C,[4],100 % of control
CC(=O)Oc1cc2c(cc1OC(C)=O)OCC(c1ccccc1)C2 (stereo not drawn),T/C,[5],98 % of control
same,T/C,"dose: 120.0 mg/kg/injection, schedule: Q01DX005 (ip), vehicle: saline with Tween-80",98 % of control
same,T/C,"dose: 240.0 mg/kg/injection, schedule: Q01DX005 (ip), vehicle: saline with Tween-80",97 % of control
COc1ccc2c3c([nH]c2c1)[C@H]1C[C@H]2[C@H](C[C@@H](O)[C@H](OC)[C@H]2C(=O)O)CN1CC3,T/C,[6],100 % of control
same,T/C,[7],100 % of control
same,T/C,[8],101 % of control
O=C1OC(c2ccccc2)=N/C1=C\c1ccc(Br)cc1,T/C,[6],93 % of control
same,T/C,[7],87 % of control and 95 % of control
same,T/C,[8],87 % of control
S=C(Nc1ccc(Cl)cc1)SC1CCCCC1,T/C,[9],100 % of control
same,T/C,"dose: 50.0 mg/kg/injection, schedule: Q01DX009 (ip), vehicle: saline",102 % of control and 108 % of control
same,T/C,"dose: 100.0 mg/kg/injection, schedule: Q01DX009 (ip), vehicle: saline",118 % of control and 119 % of control
same,T/C,"dose: 200.0 mg/kg/injection, schedule: Q01DX009 (ip), vehicle: saline",124 % of control
CCC(=O)N(C)C(C)C(=O)OC1CC(=O)N(C)c2cc(cc(OC)c2Cl)CC2(C)OC2/C=C/C(OC)C2(O)CC(OC(=O)N2)C(C)C2OC12C (stereo not drawn),T/C,"dose: 25.0 micrograms/kg/injection, schedule: Q01DX009 (ip), vehicle: saline + alcohol",124 % of control
same,T/C,"dose: 50.0 micrograms/kg/injection, schedule: Q01DX009 (ip), vehicle: saline + alcohol",120 % of control and 124 % of control
same,T/C,"dose: 100.0 micrograms/kg/injection, schedule: Q01DX009 (ip), vehicle: saline + alcohol",124 % of control
same,T/C,"dose: 800.0 micrograms/kg/injection, schedule: Q01DX009 (ip), vehicle: saline + alcohol",152 % of control
Cn1c(N)c(C(=O)N2CCN(c3ccccc3)CC2)c(=O)n(C)c1=O,T/C,"dose: 50.0 mg/kg/injection, schedule: Q01DX009 (ip), vehicle: Klucel (hydroxypropylcellulose) (HPC)",94 % of control
same,T/C,"dose: 100.0 mg/kg/injection, schedule: Q01DX009 (ip), vehicle: Klucel (hydroxypropylcellulose) (HPC)",97 % of control
same,T/C,"dose: 200.0 mg/kg/injection, schedule: Q01DX009 (ip), vehicle: Klucel (hydroxypropylcellulose) (HPC)",91 % of control
C=C(Cl)/C=N/C(=O)NC(O)C(=C)Cl (stereo not drawn),T/C,[1],93 % of control
same,T/C,[2],96 % of control
same,T/C,[3],93 % of control
CCCCCCCCCCCCCCCC[N+](C)(C)CCN=[N+]=[N-],T/C,[10],110 % of control
same,T/C,"dose: 25.0 mg/kg/injection, schedule: Q01DX009 (ip), vehicle: saline with Tween-80",107 % of control
CNC(=O)OCC1=C([Si](C)(C)C)C(=O)C(OC)=C(OC)C1=O,T/C,[1],98 % of control
same,T/C,[2],100 % of control
CC1=CSC2=NCCCCN12,T/C,[11],91 % of control
same,T/C,[12],93 % of control
same,T/C,[9],92 % of control
CSC(SC)=C1C(=O)NC(=O)NC1=O,T/C,"dose: 3.12 mg/kg/injection, schedule: Q01DX009 (ip), vehicle: saline with Tween-80",104 % of control
same,T/C,"dose: 6.25 mg/kg/injection, schedule: Q01DX009 (ip), vehicle: saline with Tween-80",90 % of control
same,T/C,[11],111 % of control
same,T/C,[10],120 % of control
same,T/C,[12],111 % of control
same,T/C,[9],124 % of control
same,T/C,[6],95 % of control
same,T/C,[7],101 % of control
CCc1cccc(CC)c1N1C(=O)C=CC1=O,T/C,"dose: 0.5 mg/kg/injection, schedule: Q01DX009 (ip), vehicle: Klucel (hydroxypropylcellulose) (HPC)",104 % of control
same,T/C,"dose: 1.0 mg/kg/injection, schedule: Q01DX009 (ip), vehicle: Klucel (hydroxypropylcellulose) (HPC)",99 % of control
same,T/C,"dose: 2.0 mg/kg/injection, schedule: Q01DX009 (ip), vehicle: Klucel (hydroxypropylcellulose) (HPC)",100 % of control
same,T/C,"dose: 4.0 mg/kg/injection, schedule: Q01DX009 (ip), vehicle: Klucel (hydroxypropylcellulose) (HPC)",105 % of control
same,T/C,"dose: 8.0 mg/kg/injection, schedule: Q01DX009 (ip), vehicle: Klucel (hydroxypropylcellulose) (HPC)",101 % of control
same,T/C,"dose: 16.0 mg/kg/injection, schedule: Q01DX009 (ip), vehicle: Klucel (hydroxypropylcellulose) (HPC)",96 % of control
COc1ccc2c(c1)c1ccnc3ccc(=O)n2c31,T/C,"dose: 0.83 mg/kg/injection, schedule: Q01DX009 (ip), vehicle: saline with Tween-80",98 % of control
same,T/C,"dose: 1.65 mg/kg/injection, schedule: Q01DX009 (ip), vehicle: saline with Tween-80",109 % of control
same,T/C,"dose: 3.29 mg/kg/injection, schedule: Q01DX009 (ip), vehicle: saline with Tween-80",109 % of control
same,T/C,"dose: 6.58 mg/kg/injection, schedule: Q01DX009 (ip), vehicle: saline with Tween-80",109 % of control
CCCCCc1nc(N)nc(-c2nc(N)nc(CCCCC)c2C)c1C,T/C,"dose: 60.0 mg/kg/injection, schedule: Q01DX005 (ip), vehicle: saline",96 % of control
same,T/C,"dose: 120.0 mg/kg/injection, schedule: Q01DX005 (ip), vehicle: saline",100 % of control
COC(=O)Cn1/c(=N\N=C\c2ccc(OC)cc2)sc2ccccc21,T/C,[4],101 % of control
same,T/C,"dose: 200.0 mg/kg/injection, schedule: Q01DX001 (ip), vehicle: saline with Tween-80",101 % of control
same,T/C,"dose: 400.0 mg/kg/injection, schedule: Q01DX001 (ip), vehicle: saline with Tween-80",92 % of control
CN(C)C1=CC(=Nc2ccccc2)SC(C)(C)C1,T/C,"dose: 15.0 mg/kg/injection, schedule: Q01DX005 (ip), vehicle: saline with Tween-80",100 % of control
same,T/C,"dose: 30.0 mg/kg/injection, schedule: Q01DX005 (ip), vehicle: saline with Tween-80",100 % of control
same,T/C,"dose: 60.0 mg/kg/injection, schedule: Q01DX005 (ip), vehicle: Klucel (hydroxypropylcellulose) (HPC)",100 % of control
same,T/C,[5],99 % of control
C/C=C/C1OC(O)(C(C)C(O)C(C)C2OC(=O)/C(OC)=C/C(C)=C/C(C)C(O)C(CC)C(O)C(C)C/C(C)=C/C=C/C2OC)CC(OC(=O)/C=C/C(=O)NC2=C(O)CCC2=O)C1C (stereo not drawn),T/C,"dose: 0.75 mg/kg/injection, schedule: Q01DX005 (ip), vehicle: Klucel (hydroxypropylcellulose) (HPC)",118 % of control
same,T/C,"dose: 1.5 mg/kg/injection, schedule: Q01DX005 (ip), vehicle: Klucel (hydroxypropylcellulose) (HPC)",110 % of control
same,T/C,"dose: 3.0 mg/kg/injection, schedule: Q01DX005 (ip), vehicle: Klucel (hydroxypropylcellulose) (HPC)",108 % of control
same,T/C,"dose: 6.0 mg/kg/injection, schedule: Q01DX005 (ip), vehicle: Klucel (hydroxypropylcellulose) (HPC)",110 % of control
COc1c(O)ccc(C2=Cc3ccc(O)cc3OC2)c1OC,T/C,"dose: 25.0 mg/kg/injection, schedule: Q01DX005 (ip), vehicle: Klucel (hydroxypropylcellulose) (HPC)",99 % of control
same,T/C,[6],98 % of control
same,T/C,[7],109 % of control
same,T/C,[8],106 % of control
